How the values were obtained:
Format in all cases: in vivo
[1] = system: Chenopodium album (CHEAL); test: greenhouse post-emergence herbicidal efficacy against CHEAL; conditions: 21 days after application
Description: (§1) All trials whose results are shown were conducted in a greenhouse by the methodology specified below. The effect of the inventive herbicidal compositions was examined on the following harmful plants 14 and 21 days after application:
(§2) Echinochloa crus-galli (ECHCG), Eleusine indica (ELEIN), Setaria viridis (SETVI), Amaranthus retroflexus (AMARE), Chenopodium album (CHEAL), Kochia scoparia (KCHSC), Solanum nigrum (SOLNI), Avena fatua (AVEFA), Bromus sterilis (BROST), Lolium multiflorum (LOLMU), Phalaris minor (PHAMI), Poa annua (POAAN), Galium aparine (GALAP), Matricaria inodora (MATIN) and Polygonum convolvulus (POLCO).
(§3) The harmful plant seeds were sown in pots (diameter 8 cm) with sandy loam soil and germinated under optimal conditions. The inventive herbicidal compositions or the active ingredients alone were applied post-emergence to the planted pots with a spray volume of 300 L/ha. The trial was conducted in a greenhouse under optimum growth conditions. The herbicidal effects were assessed visually by comparison of untreated and treated plants. The percentages mean: 0%=no effects, 100%=the plants die off completely). The percentages are used to calculate interactions between individual treatments and combination treatments according to S. R. Colby, Weeds 15, pages 20 to 22 (1967).
(§4) The abbreviations mean: • a.i.=active ingredient • E^C=expected value according to Colby (E^C=A+B−A×B/100) • Diff: =difference (%) of measured value from expected value (%) (measured value minus expected value)
(§5) Assessment: • measured value E is greater than E^C:->synergism (+ diff.) • measured value E equals E^C:->additive effect • measured value E is smaller than E^C:->antagonism(− diff.)

[2] = system: Matricaria inodora (MATIN); test: greenhouse post-emergence herbicidal efficacy against MATIN
Description: as §1, §2
(§6) The harmful plant seeds were sown in pots (diameter 8 cm) with sandy loam soil and germinated under optimal conditions. The inventive herbicidal compositions or the active ingredients alone were applied post-emergence to the planted pots with a spray volume of 300 L/ha. The trial was conducted in a greenhouse under optimum growth conditions. The herbicidal effects were assessed visually by comparison of untreated and treated plants. The percentages mean: 0%=no effects, 100%=the plants die off completely).
as §4, §5

Eleusine indica (ELEIN) = test: greenhouse post-emergence herbicidal efficacy against ELEIN; conditions: for pest or weed control at 0.5 g/ha: 0.5 g of a.i./ha; for pest or weed control at 2 g/ha: 2 g of a.i./ha
Description: as §1, §2, §3, §4, §5

[3] = system: Polygonum convolvulus (POLCO); test: greenhouse post-emergence herbicidal efficacy against POLCO
Description: as §1, §2, §6, §4, §5

Poa annua (POAAN) = test: greenhouse post-emergence herbicidal efficacy against POAAN
Description: as §1, §2, §6, §4, §5

Galium aparine (GALAP) = test: greenhouse post-emergence herbicidal efficacy against GALAP
Description: as §1, §2, §6, §4, §5

Phalaris minor (PHAMI) = test: greenhouse post-emergence herbicidal efficacy against PHAMI
Description: as §1, §2, §6, §4, §5

Kochia scoparia (KCHSC) = test: greenhouse post-emergence herbicidal efficacy against KCHSC
Description: as §1, §2, §3, §4, §5

Avena fatua (AVEFA) = test: greenhouse post-emergence herbicidal efficacy against AVEFA
Description: as §1, §2, §6, §4, §5

Bromus sterilis (BROST) = test: greenhouse post-emergence herbicidal efficacy against BROST
Description: as §1, §2, §6, §4, §5

[4] = system: Lolium multiflorum (LOLMU); test: greenhouse post-emergence herbicidal efficacy against LOLMU
Description: as §1, §2, §6, §4, §5

Setaria viridis (SETVI) = test: greenhouse post-emergence herbicidal efficacy against SETVI; conditions: 21 days after application
Description: as §1, §2, §3, §4, §5

[5] = system: Echinochloa crus-galli (ECHCG); test: greenhouse post-emergence herbicidal efficacy against ECHCG
Description: as §1, §2, §3, §4, §5

[6] = 14 days after application, g of a.i./ha: A1-57 12.5, aclonifen 200
[7] = 14 days after application, g of a.i./ha: A1-57 12.5, aclonifen 800
[8] = 14 days after application, g of a.i./ha: A1-57 50, aclonifen 800
[9] = 21 days after application, g of a.i./ha: A1-57 50, aclonifen 800
[10] = 21 days after application, 1 g of a.i./ha
[11] = 21 days after application, g of a.i./ha: A1-57 12.5, aclonifen 200
[12] = 14 days after application, g of a.i./ha: A1-57 50, aclonifen 200
[13] = 21 days after application, g of a.i./ha: A1-57 12.5, aclonifen 800
[14] = 14 days after application, 50 g of a.i./ha
[15] = 21 days after application, g of a.i./ha: A1-34 50, iodosulfuron-methyl-sodium 0.5
[16] = 14 days after application, 0.5 g of a.i./ha
[17] = 14 days after application, 2 g of a.i./ha
[18] = 21 days after application, g of a.i./ha: A1-34 50, iodosulfuron-methyl-sodium 2
[19] = 21 days after application, g of a.i./ha: A1-34 200, iodosulfuron-methyl-sodium 2
[20] = 14 days after application, 2.5 g of a.i./ha
[21] = 14 days after application, 10 g of a.i./ha
[22] = 21 days after application, g of a.i./ha: A1-13 2.5, mesosulfuron-methyl 10
[23] = 21 days after application, g of a.i./ha: A1-13 10, mesosulfuron-methyl 10
[24] = 21 days after application, g of a.i./ha: A1-13 2.5, mesosulfuron-methyl 2.5
[25] = 14 days after application, 20 g of a.i./ha
[26] = 14 days after application, 5 g of a.i./ha
[27] = 21 days after application, g of a.i./ha: A1-3 20, pinoxaden 5
[28] = 21 days after application, g of a.i./ha: A1-3 20, pinoxaden 20
[29] = 21 days after application, g of a.i./ha: A1-3 5, pinoxaden 20
[30] = Eleusine indica, post-emergence, 336 h, 14 days after application
[31] = Eleusine indica, post-emergence, 504 h, 21 days after application
[32] = 21 days after application, 0.5 g of a.i./ha
[33] = 21 days after application, 2 g of a.i./ha

## Cc1nnc(NC(=O)c2ccc(S(C)(=O)=O)c(OCCF)c2Cl)o1 [A1-57]
[1]; 1 g of a.i./ha
  Efficacy: 30%
[2]; [6]
  Efficacy: 60%
[2]; [7]
  Efficacy: 60%
[2]; [8]
  Efficacy: 85%
[2]; [9]
  Efficacy: 80%
Eleusine indica (ELEIN); [10]
  Efficacy: 10%
[3]; [6]
  Efficacy: 65%
[3]; [7]
  Efficacy: 65%
[3]; [11]
  Efficacy: 50%
Poa annua (POAAN); [6]
  Efficacy: 15%
Poa annua (POAAN); [7]
  Efficacy: 15%
Poa annua (POAAN); [12]
  Efficacy: 50%
Poa annua (POAAN); [8]
  Efficacy: 50%
Poa annua (POAAN); [13]
  Efficacy: 10%
Poa annua (POAAN); 21 days after application, g of a.i./ha: A1-57 50, aclonifen 200
  Efficacy: 35%
Poa annua (POAAN); [9]
  Efficacy: 35%
Galium aparine (GALAP); [6]
  Efficacy: 30%
Galium aparine (GALAP); [12]
  Efficacy: 60%
Galium aparine (GALAP); [9]
  Efficacy: 40%
Phalaris minor (PHAMI); [6]
  Efficacy: 50%
Phalaris minor (PHAMI); [7]
  Efficacy: 50%
Phalaris minor (PHAMI); [12]
  Efficacy: 70%
Phalaris minor (PHAMI); [11]
  Efficacy: 20%
Phalaris minor (PHAMI); [13]
  Efficacy: 20%
Kochia scoparia (KCHSC); 14 days after application, 1 g of a.i./ha
  Efficacy: 40%
Kochia scoparia (KCHSC); [10]
  Efficacy: 20%
Avena fatua (AVEFA); 14 days after application, 12.5 g of a.i./ha
  Efficacy: 0%
Avena fatua (AVEFA); [14]
  Efficacy: 0%
Avena fatua (AVEFA); [6]
  Efficacy: 0%
Avena fatua (AVEFA); [13]
  Efficacy: 0%
Bromus sterilis (BROST); [6]
  Efficacy: 0%
Bromus sterilis (BROST); [7]
  Efficacy: 0%
Bromus sterilis (BROST); [8]
  Efficacy: 40%
Bromus sterilis (BROST); [13]
  Efficacy: 0%
Bromus sterilis (BROST); [9]
  Efficacy: 15%
[4]; [7]
  Efficacy: 0%
[4]; [8]
  Efficacy: 35%

## O=C(O)CNCP(=O)(O)O [glyphosate]
[1]; 50 g of a.i./ha
  Efficacy: 30%
Eleusine indica (ELEIN); Eleusine indica, post-emergence, 504 h, read-out: Efficacy
  pest or weed control at 50 g/ha: 0%
Kochia scoparia (KCHSC); [14]
  Efficacy: 30%
Kochia scoparia (KCHSC); 21 days after application, 50 g of a.i./ha
  Efficacy: 10%
Kochia scoparia (KCHSC); 21 days after application, 200 g of a.i./ha
  Efficacy: 30%

## COC(=O)c1ccc(I)cc1S(=O)(=O)[N-]C(=O)Nc1nc(C)nc(OC)n1.[Na+] [iodosulfuron-methyl-sodium]
[2]; [15]
  Efficacy: 70%
[3]; [16]
  Efficacy: 15%
[3]; [17]
  Efficacy: 30%
[3]; [15]
  Efficacy: 0%
[3]; [18]
  Efficacy: 0%
Poa annua (POAAN); [16]
  Efficacy: 0%
Poa annua (POAAN); [17]
  Efficacy: 20%
Galium aparine (GALAP); [16]
  Efficacy: 30%
Galium aparine (GALAP); [15]
  Efficacy: 0%
Galium aparine (GALAP); [19]
  Efficacy: 25%
Phalaris minor (PHAMI); [16]
  Efficacy: 10%
Avena fatua (AVEFA); [19]
  Efficacy: 5%
Bromus sterilis (BROST); [17]
  Efficacy: 15%
Bromus sterilis (BROST); [18]
  Efficacy: 0%
Bromus sterilis (BROST); [19]
  Efficacy: 0%
[4]; [16]
  Efficacy: 0%
[4]; [17]
  Efficacy: 30%

## COC(=O)c1ccc(CNS(C)(=O)=O)cc1S(=O)(=O)NC(=O)Nc1nc(OC)cc(OC)n1 [mesosulfuron-methyl]
[2]; [20]
  Efficacy: 0%
[2]; [21]
  Efficacy: 0%
[3]; [22]
  Efficacy: 0%
[3]; [23]
  Efficacy: 0%
Poa annua (POAAN); [20]
  Efficacy: 15%
Poa annua (POAAN); [21]
  Efficacy: 40%
Poa annua (POAAN); [22]
  Efficacy: 40%
Galium aparine (GALAP); [20]
  Efficacy: 30%
Galium aparine (GALAP); [21]
  Efficacy: 30%
Phalaris minor (PHAMI); [20]
  Efficacy: 0%
Phalaris minor (PHAMI); [21]
  Efficacy: 5%
Phalaris minor (PHAMI); [24]
  Efficacy: 0%
Phalaris minor (PHAMI); [22]
  Efficacy: 5%
Phalaris minor (PHAMI); [23]
  Efficacy: 5%
Avena fatua (AVEFA); [21]
  Efficacy: 5%
Avena fatua (AVEFA); [22]
  Efficacy: 0%
Avena fatua (AVEFA); [23]
  Efficacy: 0%
Bromus sterilis (BROST); [24]
  Efficacy: 0%
Bromus sterilis (BROST); [22]
  Efficacy: 0%
Bromus sterilis (BROST); [23]
  Efficacy: 0%
[4]; [23]
  Efficacy: 15%

## CCc1cc(C)cc(CC)c1-c1c(OC(=O)C(C)(C)C)n2n(c1=O)CCOCC2 [pinoxaden]
[2]; [25]
  Efficacy: 0%
[3]; [26]
  Efficacy: 0%
[3]; [25]
  Efficacy: 0%
[3]; [27]
  Efficacy: 0%
[3]; [28]
  Efficacy: 0%
Poa annua (POAAN); [26]
  Efficacy: 0%
Poa annua (POAAN); [25]
  Efficacy: 0%
Poa annua (POAAN); [29]
  Efficacy: 0%
Poa annua (POAAN); [28]
  Efficacy: 0%
Galium aparine (GALAP); [25]
  Efficacy: 0%
Galium aparine (GALAP); [29]
  Efficacy: 0%
Galium aparine (GALAP); [27]
  Efficacy: 0%
Galium aparine (GALAP); [28]
  Efficacy: 0%
Phalaris minor (PHAMI); [26]
  Efficacy: 10%
Phalaris minor (PHAMI); [25]
  Efficacy: 50%
Phalaris minor (PHAMI); [27]
  Efficacy: 10%
Phalaris minor (PHAMI); [28]
  Efficacy: 20%
Avena fatua (AVEFA); [26]
  Efficacy: 0%
Avena fatua (AVEFA); [25]
  Efficacy: 20%
Bromus sterilis (BROST); [26]
  Efficacy: 0%
Bromus sterilis (BROST); [25]
  Efficacy: 10%
[4]; [25]
  Efficacy: 85%
[4]; [29]
  Efficacy: 80%
[4]; [27]
  Efficacy: 30%

## CS(=O)(=O)c1ccc(C(=O)C2C(=O)CCCC2=O)c(Cl)c1COCC(F)(F)F [tembotrione]
[1]; 2 g of a.i./ha
  Efficacy: 30%
Eleusine indica (ELEIN); [30]
  pest or weed control at 0.5 g/ha: 30%
  pest or weed control at 2 g/ha: 40%
Eleusine indica (ELEIN); [31]
  pest or weed control at 0.5 g/ha: 0%
  pest or weed control at 2 g/ha: 10%
Setaria viridis (SETVI); 0.5 g of a.i./ha
  Efficacy: 0%
Setaria viridis (SETVI); 2 g of a.i./ha
  Efficacy: 10%
[5]; [16]
  Efficacy: 10%
[5]; [32]
  Efficacy: 10%
[5]; [33]
  Efficacy: 60%
Kochia scoparia (KCHSC); [17]
  Efficacy: 20%
Kochia scoparia (KCHSC); [32]
  Efficacy: 0%
Kochia scoparia (KCHSC); [33]
  Efficacy: 10%

— US10111435B2, “Herbicidal compositions containing N-(1,3,4-oxadiazol-2-yl)-aryl carboxylic acid amides” (BAYER CROPSCIENCE AKTIENGESELLSCHAFT, priority 2013, dated 2018)
